pKi: −log10 of the molar value.
target: T1, PTP1B (truncated form, first 321 amino acids) (Homo sapiens, UniProt P18031); test: Inhibition of truncated PTP1B, p-nitrophenyl phosphate substrate; type: biochemical; settings: p-nitrophenyl phosphate 0.16 to 10 mM; pH 5.5; 25° C., 60 minutes
T1 construct: a truncated form of PTP1B (corresponding to the first 321 amino acids); made in house; host or cells: E. coli
T1 sequence (P18031 1-321): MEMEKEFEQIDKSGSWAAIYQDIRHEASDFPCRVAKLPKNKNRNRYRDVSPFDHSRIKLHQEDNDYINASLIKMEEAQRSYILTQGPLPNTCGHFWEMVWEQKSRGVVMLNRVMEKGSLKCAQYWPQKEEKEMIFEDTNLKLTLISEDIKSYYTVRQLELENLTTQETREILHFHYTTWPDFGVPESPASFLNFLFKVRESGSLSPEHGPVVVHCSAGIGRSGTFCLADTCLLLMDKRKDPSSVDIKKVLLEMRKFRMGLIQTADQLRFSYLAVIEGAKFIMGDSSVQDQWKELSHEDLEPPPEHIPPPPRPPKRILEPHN
Method: The compounds are evaluated for biological activity with a truncated form of PTP1B (corresponding to the first 321 amino acids), which was expressed in E. coli and purified to apparent homogeneity using published procedures well-known to those skilled in the art. The enzyme reactions are carried out using standard conditions essentially as described by Burke et al. (Biochemistry 35; 15989-15996 (1996)). The assay conditions are as follows. Appropriate concentrations of the compounds of the invention are added to the reaction mixtures containing different concentrations of the substrate, p-nitrophenyl phosphate (range: 0.16 to 10 mM—final assay concentration). The buffer used was 100 mM sodium acetate pH 5.5, 50 mM sodium chloride, 0.1% (w/v) bovine serum albumin and 5 mM dithiothreitol (total volume […]). The reaction was started by addition of the enzyme and carried out in microtiter plates at 25° C. for 60 minutes. The reactions are stopped by addition of NaOH. The enzyme activity was determined by measurement of the absorbance at 405 nm with appropriate corrections for absorbance at 405 nm of the compounds and p-nitrophenyl phosphate. The data are analyzed using nonlinear regression fit to classical Michaelis Menten enzyme kinetic models. Inhibition is expressed as Ki values in μM.

SMILES	pKi
Cc1[nH]cc(NC(=O)C(=O)O)c1C(=O)O [Example 1, 2-Methyl4-(oxalyl-amino)-1H-pyrrole-3-carboxylic acid]	3.70
O=C(O)C(=O)Nc1scc(-c2ccccc2)c1C(=O)O [Example 4, 2-(Oxalyl-amino)-4-phenyl-thiophene-3-carboxylic acid]	4.00

system: not given; test: not given; settings: not given

SMILES	melting point
O=C(O)C(=O)Nc1nn(Cc2ccccc2)cc1C(=O)O (hydrate or solvate) [Example 2, 1-Benzyl-3-(oxalyl-amino)-1H-pyrazole-4-carboxylic acid]	189 to 191 °C
O=C(O)C(=O)Nc1scc(C2CCCCC2)c1C(=O)O (hydrate or solvate) [Example 3, 4-Cyclohexyl-2-(oxalyl-amino)-thiophene-3-carboxylic acid]	> 250 °C
O=C(O)C(=O)Nc1scc(-c2ccccc2)c1C(=O)O (hydrate or solvate) [Example 4, 2-(Oxalyl-amino)-4-phenyl-thiophene-3-carboxylic acid]	196 to 198 °C
COc1ccc(Oc2ccc(-c3cc(NC(=O)C(=O)O)c(C(=O)O)s3)cc2)cc1 (hydrate or solvate) [Example 14, 5-(4-(4-Methoxy-phenoxy)-phenyl)-3-(oxalyl-amino)-thiophene-2-carboxylic acid]	215 °C (dec.)
O=C(O)C(=O)Nc1sc(Cc2ccccc2)cc1C(=O)O [Example 17, 2-(Oxalyl-amino)-5-(phenyl-methyl)thiophene-3-carboxylic acid]	230 to 231 °C
O=C(O)C(=O)Nc1sc(-c2ccccc2)cc1C(=O)O [Example 19, 2-(Oxalyl-amino)-5-phenyl-thiophene-3-carboxylic acid]	238 to 240 °C
O=C(CN1C(=O)c2ccccc2C1=O)NCc1cc(C(=O)O)c(NC(=O)C(=O)O)s1 [Example 41, 5-((2-(1,3-Dioxo-1.3-dihydro-isoindol-2-yl)-acetylamino)-methyl)-2-(oxalyl-amino)-thiophene-3-carboxylic acid]	243 to 244 °C (dec.)

— US20050119332A1, “Substituted thiophene compounds as modulators of protein tyrosine phosphatases (PTPases)” (priority 1998, published 2005)
